Measurements as given in US20190292243A1, “PEPTIDES AND METHODS OF USE THEREOF” (Fred Hutchinson Cancer Research Center, priority 2016, published 2019).
Square brackets hold non-standard residues; d marks the D form. Ends that are not written are not given here. Peptide text beside a SMILES is read from it. * marks the point of attachment. Dolaproine = CO[C@@H]([C@@H]1CCCN1)[C@@H](C)C(=O)O; Dil = CC[C@H](C)[C@H](NC)[C@@H](CC(=O)O)OC; X1 = C[C@@H](N*)[C@@H](O)c1ccccc1; NMeV = CN[C@H](C(=O)O)C(C)C

Legend:
[1] = system: A375 cells and RH28 cells; assay: Modulation of SEQ ID NO: 15-A accumulation in cells by small molecule drugs (flow cytometry median fluorescence); type: cell-based; details: drug at increasing concentrations with 1 μM SEQ ID NO: 15-A
From the text: This example illustrates the small molecule drug enhancing properties of peptides of this disclosure. Peptides of this disclosure were useful in enhancing or dampening the potency of several small molecule drugs. […] The Approved Oncology Drugs Plated Set VII was obtained from NCI and included histone deacetylase (HDAC) inhibitors such as vorinostat, belinostat, panobinostat, and […]. The tested set also included tyrosine kinase inhibitors, protease inhibitors, and anthracyclines. A375 cells and RH28 cells were plated at 10,000 cells per well in 96 well plates and allowed to adhere overnight. […] Cells were washed three times with PBS-FBS and once in PBS. Cells were trypsinized, resuspended in PBS-FBS-DAPI, and assessed for average fluorescence as compared to untreated cells by flow cytometry analysis. […] Cells were washed three times with PBS-FBS and once in PBS. Cells were trypsinized, resuspended in PBS-FBS-DAPI, and assessed for average fluorescence as compared to untreated cells by flow cytometry analysis.

[2] = system: Caspase-3 activation in Ramos lymphoma tumor, liver, kidney; assay: Caspase-3 staining of tissues after MMAE or peptide-MMAE conjugate; type: in vivo, female Harlan athymic mice; details: 7.5 nmol, 48 hours after single systemic administration
Protocol: This example illustrates whole-body autoradiography and Caspase-3 staining after administration of peptide conjugated to MMAE. MMAE was conjugated to a peptide of SEQ ID NO: 26 with a Val-Cit-PABC linker to produce a SEQ ID NO: 26-B peptide conjugate (SEQ ID NO: 26-B). 7.5 nmol MMAE or 7.5 nmol SEQ ID NO: 26-B were administered to RH-28 tumor-bearing or Ramos lymphoma tumor-bearing female Harlan athymic mice and allowed to freely circulate for 24 or 48 hours.

[3] = system: RH28 flank tumors; assay: Chirality in tumor homing, RH28 flank tumors (ex vivo IVIS); design: species or system mice; details: AF647 conjugates, 10 nmol per mouse intravenously, one hour
Protocol: This example illustrates the role of chirality in tumor homing peptides of this disclosure. Each L-enantiomer in a peptide of SEQ ID NO: 15 was replaced with the corresponding D-enantiomer (SEQ ID NO: 36). Both peptides were conjugated to AlexaFluor 647 and tumor homing, and homing to the liver and kidneys was assessed by fluorescence quantification. […] Peptide-AF647 conjugates were administered intravenously to mice bearing RH28 flank tumors at 10 nmol per mouse. Mice were euthanized one hour post-administration, organs were necropsied, and tissues were analyzed ex vivo using an IVIS imager. P-values were determined using an unpaired Student's t-test.

[4] = system: A204 cell line; assay: Relative viability of A204 cells; type: cell-based; details: 48 hours after administration, various doses
Protocol: (§1) This example describes the viability different cell lines to MMAE or MMAE-peptide conjugates and toxicity induced by delivery of MMAE to cells by a peptide conjugate of the disclosure. A peptide of SEQ ID NO: 26 was expressed recombinantly or chemically synthesized and then conjugated to a therapeutic agent, MMAE, by a Val-Cit-PAB linker, producing SEQ ID NO: 26-B peptide conjugate (SEQ ID NO: 26-B). HeLa cells were treated in vitro with MMAE, SEQ ID NO: 26 peptide, or SEQ ID NO: 26-B, and viability was quantified. Ewing's Sarcoma cell lines including the RH28 cell line, A673 cell line, and A204 cell line, were treated in vitro with MMAE or SEQ ID NO: 26-B for 48-72 hours and viability of cells was quantified.

[5] = system: RH28 cell line; assay: Relative viability of RH28 cells; type: cell-based; details: various doses
Protocol: as §1

[6] = system: A673 cell line; assay: Relative viability of A673 cells; type: cell-based; details: various doses
Protocol: as §1

[7] = system: RH-28 tumor; assay: Whole-body autoradiography after peptide-MMAE conjugate administration, RH-28 tumor; type: in vivo, female Harlan athymic mice; details: 14 nmol, 24 hours after administration
From the text: This example illustrates whole-body autoradiography and Caspase-3 staining after administration of peptide conjugated to MMAE. MMAE was conjugated to a peptide of SEQ ID NO: 26 with a Val-Cit-PABC linker to produce a SEQ ID NO: 26-B peptide conjugate (SEQ ID NO: 26-B). […]
At the end of the dosing period, mice were frozen in a hexane/dry ice bath and then frozen in a block of carboxymethylcellulose. […] Thin, frozen sections of mice were obtained with a microtome, allowed to desiccate in a freezer, and exposed to phosphoimager plates for about ten days.
These plates were developed, and the signal (densitometry) from each organ was normalized to the signal found in the heart blood of each mouse. A signal in tissue darker than the signal expected from blood in that tissue indicates peptide accumulation in a region, tissue, structure or cell.

[8] = 72 hours of continuous treatment

Cn1c(=O)n(-c2ccc(C(C)(C)C#N)cc2)c2c3cc(-c4cnc5ccccc5c4)ccc3ncc21 [BEZ235]
modulation of accumulation of SEQ ID NO: 15-A in tumor cells (median fluorescence vs untreated) [1]: modulate the accumulation of peptides of this disclosure to tumor cells

CC[C@H](C)[C@@H]([C@@H](CC(=O)N1CCC[C@H]1[C@H](OC)[C@@H](C)C(=O)N[C@H](C)[C@@H](O)c1ccccc1)OC)N(C)C(=O)[C@@H](NC(=O)[C@@H](NC)C(C)C)C(C)C [MMAE, monomethyl auristatin E] (H-[NMeV]V[Dil][Dolaproine]-X1)
Caspase-3 staining in tumor, liver and kidney [2]: induction of apoptosis

Nc1ccn([C@@H]2O[C@H](CO)[C@@H](O)[C@@H]2O)c(=O)n1 [cytarabine]
modulation of accumulation of SEQ ID NO: 15-A in tumor cells (median fluorescence vs untreated) [1]: modulate the accumulation of peptides of this disclosure to tumor cells

O=C(CCCCCCC(=O)Nc1ccccc1)NO [vorinostat]
modulation of accumulation of SEQ ID NO: 15-A in tumor cells (median fluorescence vs untreated) [1]: modulate the accumulation of peptides of this disclosure to tumor cells

GSSCEPGRTFRDRCNTCRCGADGRSAACTLRACPNQ (not fully specified (some residues); ends and bridges not checked) [SEQ ID NO: 15]
homing to RH28 flank tumor (average radiant efficiency fluorescence), L- vs D-amino acid peptide [3]: higher homing to flank tumor than a peptide of SEQ ID NO: 36

SEQ ID NO: 15-B (GSSCEPGRTFRDRCNTCRCGADGRSAACTLRACPNQ; cysteine pairing not given here; also: conjugate B)
relative viability / growth of A204 cells [4]: inhibited growth of all three cell lines | relative viability / growth of RH28 cells ([5]; 48 hours after administration): inhibited growth of all three cell lines | relative viability / growth of A673 cells ([6]; 48 hours after administration): inhibited growth of all three cell lines

SEQ ID NO: 26-B (GSSCEPGRTFRDRCNTCKCGADGRSAACTLRACPNQ; cysteine pairing not given here; also: conjugate B)
relative viability / growth of RH28 cells [5, 8]: inhibited growth of both cell lines | relative viability / growth of A673 cells [6, 8]: inhibited growth of both cell lines

SEQ ID NO: 26-Br (GSSCEPGRTFRDRCNTCKCGADGRSAACTLRACPNQ; cysteine pairing not given here; also: conjugate Br)
14C signal distribution in tissues (autoradiography) [7]: accumulation in the RH-28 tumor

bleomycin
modulation of accumulation of SEQ ID NO: 15-A in tumor cells (median fluorescence vs untreated) [1]: modulate the accumulation of peptides of this disclosure to tumor cells
